Measurements published in US10934296B2, “4-imidazopyridazin-1-yl-benzamides as Btk inhibitors” (Merck Sharp & Dohme B.V., priority 2011, dated 2021).

What was measured:
Btk enzyme (His-Btk) = Btk enzyme (His-Btk) (Homo sapiens (Human), UniProt Q06187); test: Btk enzyme activity, IMAP fluorescence polarization assay; settings: 60 min pre-incubation, 5 μM ATP, bin bounds in nM
Lck enzyme = Lck enzyme (Homo sapiens (Human), UniProt P06239); test: Lck enzyme activity, IMAP fluorescence polarization assay; settings: 60 min pre-incubation, 6 μM ATP, bin bounds in μM
Lck enzyme, sequence (P06239 whole entry): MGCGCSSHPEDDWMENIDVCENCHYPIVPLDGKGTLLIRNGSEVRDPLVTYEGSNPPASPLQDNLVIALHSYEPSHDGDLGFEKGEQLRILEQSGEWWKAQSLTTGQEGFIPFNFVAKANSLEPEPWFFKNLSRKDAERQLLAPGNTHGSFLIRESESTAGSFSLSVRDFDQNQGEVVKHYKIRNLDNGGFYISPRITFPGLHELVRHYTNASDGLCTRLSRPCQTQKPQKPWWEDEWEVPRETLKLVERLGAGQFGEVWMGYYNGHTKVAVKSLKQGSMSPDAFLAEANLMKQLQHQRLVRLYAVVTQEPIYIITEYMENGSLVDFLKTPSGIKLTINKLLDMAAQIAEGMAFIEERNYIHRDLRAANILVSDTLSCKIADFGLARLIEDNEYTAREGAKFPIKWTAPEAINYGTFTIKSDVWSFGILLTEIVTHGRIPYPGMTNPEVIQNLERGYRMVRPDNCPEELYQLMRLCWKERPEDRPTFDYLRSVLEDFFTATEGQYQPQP

Lyn enzyme = Lyn enzyme (Homo sapiens (Human), UniProt P07948); test: Lyn enzyme activity, IMAP fluorescence polarization assay; settings: 60 min pre-incubation, 2 μM ATP, bin bounds in μM
Lyn enzyme, sequence (P07948 whole entry): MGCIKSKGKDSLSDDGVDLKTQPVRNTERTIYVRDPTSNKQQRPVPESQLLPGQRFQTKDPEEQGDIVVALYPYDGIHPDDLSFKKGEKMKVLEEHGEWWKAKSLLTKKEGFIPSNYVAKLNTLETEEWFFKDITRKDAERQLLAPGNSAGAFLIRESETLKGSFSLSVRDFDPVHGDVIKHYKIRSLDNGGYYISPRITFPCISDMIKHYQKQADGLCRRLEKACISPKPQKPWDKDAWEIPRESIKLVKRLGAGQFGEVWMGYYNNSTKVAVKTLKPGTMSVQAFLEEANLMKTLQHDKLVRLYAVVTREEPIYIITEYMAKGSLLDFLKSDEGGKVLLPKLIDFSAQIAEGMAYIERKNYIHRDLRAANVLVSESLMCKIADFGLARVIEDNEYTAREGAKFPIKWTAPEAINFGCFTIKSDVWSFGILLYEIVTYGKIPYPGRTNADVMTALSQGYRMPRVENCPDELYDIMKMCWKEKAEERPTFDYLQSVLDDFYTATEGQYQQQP

Btk enzyme (His-Btk), sequence (Q06187 whole entry): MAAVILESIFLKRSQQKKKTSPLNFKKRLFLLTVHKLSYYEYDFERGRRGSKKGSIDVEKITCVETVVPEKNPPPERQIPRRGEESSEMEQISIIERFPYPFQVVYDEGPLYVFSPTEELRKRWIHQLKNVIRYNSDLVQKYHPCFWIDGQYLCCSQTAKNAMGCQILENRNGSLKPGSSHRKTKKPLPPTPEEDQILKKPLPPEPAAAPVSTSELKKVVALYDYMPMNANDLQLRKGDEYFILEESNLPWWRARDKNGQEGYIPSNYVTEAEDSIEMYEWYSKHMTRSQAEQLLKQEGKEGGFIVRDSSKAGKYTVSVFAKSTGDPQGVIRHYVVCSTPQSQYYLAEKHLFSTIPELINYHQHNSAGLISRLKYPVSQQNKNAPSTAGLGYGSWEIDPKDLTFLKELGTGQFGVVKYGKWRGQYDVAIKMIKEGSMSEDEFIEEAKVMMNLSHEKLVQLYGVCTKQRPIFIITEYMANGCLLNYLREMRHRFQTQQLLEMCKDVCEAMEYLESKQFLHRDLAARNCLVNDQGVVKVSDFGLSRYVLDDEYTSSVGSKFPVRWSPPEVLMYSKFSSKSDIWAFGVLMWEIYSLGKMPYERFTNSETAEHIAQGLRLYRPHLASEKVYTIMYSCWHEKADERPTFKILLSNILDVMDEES

SMILES | EC50 Btk activity values (Btk enzyme (His-Btk)) [nM] | EC50 Lck activity values (Lck enzyme) [µM] | EC50 Lyn activity values (Lyn enzyme) [µM]
CC#CC(=O)N1CCC[C@H]1c1nc(-c2ccc(C(=O)Nc3nccs3)cc2)c2c(N)nccn12 [Example 60, (S)-4-(8-amino-3-(1-but-2-ynoylpyrrolidin-2-yl)imidazo[1,5-a]pyrazin-1-yl)-N-(thiazol-2-yl)benzamide] | <100 | <1 | <1
C=CC(=O)N1CCC[C@H]1c1nc(-c2ccc(C(=O)Nc3cc(CC)ccn3)cc2)c2c(N)nccn12 [Example 126, (S)-4-(3-(1-acryloylpyrrolidin-2-yl)-8-aminoimidazo[1,5-a]pyrazin-1-yl)-N-(4-ethylpyridin-2-yl)benzamide] |  | <1 | <1
C=CC(=O)N1CCC[C@H]1c1nc(-c2ccc(C(=O)Nc3cc(-c4ccccc4)ccn3)cc2)c2c(N)nccn12 [Example 133, (S)-4-(3-(1-acryloylpyrrolidin-2-yl)-8-aminoimidazo[1,5-a]pyrazin-1-yl)-N-(4-phenylpyridin-2-yl)benzamide] |  | <1 | <1
